# Data taken from US10398696B2, “Combinations for treatment of cancer” (Stichting Het Nederlands Kanker Instituut-Antoni van …, priority 2013, dated 2019).
# Assays:
# [1] = system: H358 lung cells; experiment: long-term proliferation assay, H358; assay type: cell-based; conditions: MEK inhibitor selumetinib (FIG. 2)
# Experimental: FIG. 1 Suppression of ERBB3 by shRNA enhances response to MEK inhibitor. H358 KRAS mutant (Non-Small Cell Lung Cancer (NSCLC) cells were infected with two independent shRNAs targeting ERBB3 as indicated. pLKO vector serves as a control vector. After puromycin selection, cells were cultured in the absence or presence of 1 μM selumetinib for 20 days.
# FIG. 2 […] lung cancer cells were cultured in increasing concentration of MEK inhibitor selumetinib alone, EGFR inhibitor gefitinib alone, ERBB2 inhibitor CP724714 alone, EGFR/ERBB2 dual inhibitor afatinib, EGFR/ERBB2 dual inhibitor dacomitinib alone or their combinations as indicated. Cells were harvested, fixed and stained after 21 days.
# Recently the use of a kinome-centered synthetic lethal screening approach, which enables the identification of kinases whose inhibition is strongly synergistic with a cancer drug of interest has been described (Prahallad et al., 2012). […] Each of these knockdown vectors has a unique DNA-based molecular bar code identifier, which allows quantification of the relative abundance of each of the shRNA vectors in the presence and absence of drug (Prahallad et al., 2012). […] After 21 days, genomic DNA was isolated from both cells of the treated and untreated populations and the bar codes contained in the shRNA cassettes were recovered by PCR and their abundance determined by deep sequencing. […]
# [2] = system: SW837 colon cells; experiment: long-term proliferation assay, SW837; assay type: cell-based; conditions: MEK inhibitor selumetinib (FIG. 3)
compound,measurement,setting,value
COc1cc2ncnc(Nc3ccc(F)c(Cl)c3)c2cc1NC(=O)/C=C/CN1CCCCC1 [dacometinib],synergy with MEK inhibition in long-term proliferation assays,[1],strong synergy
same,synergy with MEK inhibition in long-term proliferation assays,[2],strong synergy
